# Target: Aurora B/INCENP (Homo sapiens, UniProt Q96GD4)
# Assay: Determination of inhibition of AIK: Aurora B/INCENP direct fluorescence polarization (IMAP) assay
# Assay type: biochemical
# Settings: 10 uM ATP, 0.8 nM Aurora B/INCENP; values given as bins; read-out: IC50 of Exemplified Compounds Against AIK B
# Sequence of Aurora B/INCENP (Q96GD4 whole entry): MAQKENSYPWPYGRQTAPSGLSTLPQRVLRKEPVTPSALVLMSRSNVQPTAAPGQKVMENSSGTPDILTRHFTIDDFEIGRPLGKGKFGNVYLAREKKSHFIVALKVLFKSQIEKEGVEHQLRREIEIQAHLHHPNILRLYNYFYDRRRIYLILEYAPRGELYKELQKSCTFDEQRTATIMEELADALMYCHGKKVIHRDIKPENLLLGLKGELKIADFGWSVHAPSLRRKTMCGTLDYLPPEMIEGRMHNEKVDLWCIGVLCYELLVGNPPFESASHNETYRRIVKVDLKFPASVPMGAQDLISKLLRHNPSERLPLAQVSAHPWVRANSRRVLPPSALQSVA
# Sequence of Aurora B/INCENP (Q9NQS7 whole entry partner): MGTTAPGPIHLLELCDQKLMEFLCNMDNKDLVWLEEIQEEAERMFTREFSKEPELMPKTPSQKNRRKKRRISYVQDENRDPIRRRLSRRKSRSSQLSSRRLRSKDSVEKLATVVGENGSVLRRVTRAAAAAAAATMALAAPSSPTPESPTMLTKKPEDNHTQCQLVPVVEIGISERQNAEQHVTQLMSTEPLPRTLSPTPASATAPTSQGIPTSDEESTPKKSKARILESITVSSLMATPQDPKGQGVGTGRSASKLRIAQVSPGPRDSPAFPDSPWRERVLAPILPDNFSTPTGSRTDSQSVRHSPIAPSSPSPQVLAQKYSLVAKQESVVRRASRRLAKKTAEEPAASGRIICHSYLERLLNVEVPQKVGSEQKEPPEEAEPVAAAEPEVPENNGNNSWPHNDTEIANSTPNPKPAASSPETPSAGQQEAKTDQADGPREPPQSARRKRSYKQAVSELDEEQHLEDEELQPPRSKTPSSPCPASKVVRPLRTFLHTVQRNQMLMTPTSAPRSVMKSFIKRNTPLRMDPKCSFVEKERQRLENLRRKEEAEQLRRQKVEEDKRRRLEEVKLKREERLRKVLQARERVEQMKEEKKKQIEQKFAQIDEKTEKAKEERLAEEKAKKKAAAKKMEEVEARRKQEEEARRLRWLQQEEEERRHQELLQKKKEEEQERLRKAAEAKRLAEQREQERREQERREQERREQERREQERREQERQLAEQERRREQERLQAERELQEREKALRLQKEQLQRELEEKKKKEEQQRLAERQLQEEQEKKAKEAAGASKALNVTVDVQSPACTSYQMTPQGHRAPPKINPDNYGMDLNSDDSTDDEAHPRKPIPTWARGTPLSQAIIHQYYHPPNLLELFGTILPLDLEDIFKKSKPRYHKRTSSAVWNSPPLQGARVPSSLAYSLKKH
row,IC50 [nM],Structure (SMILES)
1,4 to 5.5,"CCS(=O)(=O)c1cccc(-c2ccc(OCCCN(C)C)c3[nH]c4ncc(C)cc4c23)c1 [Compound 206, 3-(5-(3-(ethylsulfonyl)phenyl)-3-methyl-9H-pyrido[2,3-b]indol-8-yloxy)-N,N-dimethylpropan-1-amine]"
2,> 13,"CCS(=O)(=O)c1cccc(-c2ccc(OCCN(C)C)c3[nH]c4ncc(C)cc4c23)c1 [Compound 207, 2-(5-(3-(ethylsulfonyl)phenyl)-3-methyl-9H-pyrido[2,3-b]indol-8-yloxy)-N,N-dimethylethanamine]"
3,8.6 to 13,"CCS(=O)(=O)c1cccc(-c2ccc(OCCOC)c3[nH]c4ncc(C)cc4c23)c1 [Compound 208, 5-(3-(ethylsulfonyl)phenyl)-8-(2-methoxyethoxy)-3-methyl-9H-pyrido[2,3-b]indole]"
4,< 4,"CCS(=O)(=O)c1cccc(-c2ccc(OCC#N)c3[nH]c4ncc(C)cc4c23)c1 [Compound 209, 2-(5-(3-(ethylsulfonyl)phenyl)-3-methyl-9H-pyrido[2,3-b]indol-8-yloxy)acetonitrile]"
5,> 13,"CCS(=O)(=O)c1cccc(-c2ccc(OCCC#N)c3[nH]c4ncc(C)cc4c23)c1 [Compound 210, 3-(5-(3-(ethylsulfonyl)phenyl)-3-methyl-9H-pyrido[2,3-b]indol-8-yloxy)propanenitrile]"
6,5.6 to 8.5,"CCS(=O)(=O)c1cccc(-c2ccc(O[C@H](C)CO)c3[nH]c4ncc(C)cc4c23)c1 [Compound 212, (R)-2-(5-(3-(ethylsulfonyl)phenyl)-3-methyl-9H-pyrido[2,3-b]indol-8-yloxy)propan-1-ol]"
7,4 to 5.5,"CCS(=O)(=O)c1cccc(-c2ccc(O[C@@H](C)CO)c3[nH]c4ncc(C)cc4c23)c1 [Compound 213, (S)-2-(5-(3-(ethylsulfonyl)phenyl)-3-methyl-9H-pyrido[2,3-b]indol-8-yloxy)propan-1-ol]"
8,5.6 to 8.5,"CCS(=O)(=O)c1cccc(-c2ccc(OCCO)c3[nH]c4ncc(C)cc4c23)c1 [Compound 216, 2-(5-(3-(ethylsulfonyl)phenyl)-3-methyl-9H-pyrido[2,3-b]indol-8-yloxy)ethanol]"
9,4 to 5.5,"CCS(=O)(=O)c1cccc(-c2ccc(OCCCO)c3[nH]c4ncc(C)cc4c23)c1 [Compound 217, 3-(5-(3-(ethylsulfonyl)phenyl)-3-methyl-9H-pyrido[2,3-b]indol-8-yloxy)propan-1-ol]"
10,< 4,CCS(=O)(=O)c1cccc(-c2ccc(OC)c3[nH]c4ncc(Cl)cc4c23)c1 [Compound 218]
11,4 to 5.5,"CCS(=O)(=O)c1cccc(-c2ccc(OCCO)c3[nH]c4ncc(Cl)cc4c23)c1 [Compound 225, 2-(3-chloro-5-(3-(ethylsulfonyl)phenyl)-9H-pyrido[2,3-b]indol-8-yloxy)ethanol]"
12,5.6 to 8.5,"CCS(=O)(=O)c1cccc(-c2ccc(OCCOC(=O)[C@H](C)N)c3[nH]c4ncc(C)cc4c23)c1 [Compound 226, (S)-2-(5-(3-(ethylsulfonyl)phenyl)-3-methyl-9H-pyrido[2,3-b]indol-8-yloxy)ethyl 2-aminopropanoate]"
13,5.6 to 8.5,"CCS(=O)(=O)c1cccc(-c2ccc(OCCCOC(=O)[C@H](C)N)c3[nH]c4ncc(C)cc4c23)c1 [Compound 227, (S)-3-(5-(3-(ethylsulfonyl)phenyl)-3-methyl-9H-pyrido[2,3-b]indol-8-yloxy)propyl 2-aminopropanoate]"
14,4 to 5.5,"CCS(=O)(=O)c1cccc(-c2ccc(OC[C@@H](O)CO)c3[nH]c4ncc(C)cc4c23)c1 [Compound 230, (S)-3-(5-(3-(ethylsulfonyl)phenyl)-3-methyl-9H-pyrido[2,3-b]indol-8-yloxy)propane-1,2-diol]"
15,< 4,"CCS(=O)(=O)c1cccc(-c2ccc(OC[C@H](O)CO)c3[nH]c4ncc(C)cc4c23)c1 [Compound 231, (R)-3-(5-(3-(ethylsulfonyl)phenyl)-3-methyl-9H-pyrido[2,3-b]indol-8-yloxy)propane-1,2-diol]"
16,5.6 to 8.5,"CCS(=O)(=O)c1cccc(-c2ccc(OC[C@H](O)CN(C)C)c3[nH]c4ncc(C)cc4c23)c1 [Compound 232, (R)-1-(dimethylamino)-3-(5-(3-(ethylsulfonyl)phenyl)-3-methyl-9H-pyrido[2,3-b]indol-8-yloxy)propan-2-ol]"
17,5.6 to 8.5,"CCS(=O)(=O)c1cccc(-c2ccc(OC[C@@H](C)O)c3[nH]c4ncc(C)cc4c23)c1 [Compound 233, (R)-1-(5-(3-(ethylsulfonyl)phenyl)-3-methyl-9H-pyrido[2,3-b]indol-8-yloxy)propan-2-ol]"
18,4 to 5.5,"CCS(=O)(=O)c1cccc(-c2ccc(OC[C@H](C)O)c3[nH]c4ncc(C)cc4c23)c1 [Compound 234, (S)-1-(5-(3-(ethylsulfonyl)phenyl)-3-methyl-9H-pyrido[2,3-b]indol-8-yloxy)propan-2-ol]"
19,> 13,"CCS(=O)(=O)c1cccc(-c2ccc(OCCC#N)c3[nH]c4ncc(Cl)cc4c23)c1 [Compound 256, 3-(3-chloro-5-(3-(ethylsulfonyl)phenyl)-9H-pyrido[2,3-b]indol-8-yloxy)propanenitrile]"

# The remaining lines, values behind:
row,Structure (SMILES),IC50 [nM]
1,"CCS(=O)(=O)c1cccc(-c2ccc(OCCCN(C)C)c3[nH]c4ncc(Cl)cc4c23)c1 [Compound 220, 3-(3-chloro-5-(3-(ethylsulfonyl)phenyl)-9H-pyrido[2,3-b]indol-8-yloxy)-N,N-dimethylpropan-1-amine]",4 to 5.5
2,"CCN(CC)CCOc1ccc(-c2cccc(S(=O)(=O)CC)c2)c2c1[nH]c1ncc(Cl)cc12 [Compound 221, 2-(3-chloro-5-(3-(ethylsulfonyl)phenyl)-9H-pyrido[2,3-b]indol-8-yloxy)-N,N-diethylethanamine]",5.6 to 8.5
3,"CCS(=O)(=O)c1cccc(-c2ccc(OCCN(C)C)c3[nH]c4ncc(Cl)cc4c23)c1 [Compound 222, 2-(3-chloro-5-(3-(ethylsulfonyl)phenyl)-9H-pyrido[2,3-b]indol-8-yloxy)-N,N-dimethylethanamine]",4 to 5.5
4,"CCS(=O)(=O)c1cccc(-c2ccc(OCCN3CCCC3)c3[nH]c4ncc(Cl)cc4c23)c1 [Compound 223, 3-chloro-5-(3-(ethylsulfonyl)phenyl)-8-(2-(pyrrolidin-1-yl)ethoxy)-9H-pyrido[2,3-b]indole]",5.6 to 8.5
5,"CCS(=O)(=O)c1cccc(-c2ccc(OCCN3CCN(C)CC3)c3[nH]c4ncc(Cl)cc4c23)c1 [Compound 224, 3-chloro-5-(3-(ethylsulfonyl)phenyl)-8-(2-(4-methylpiperazin-1-yl)ethoxy)-9H-pyrido[2,3-b]indole]",5.6 to 8.5
6,"Cc1cnc2[nH]c3c(C)c(C(=O)NC4CCN(C)CC4)cc(-c4cccc(C(=O)NC5CC5)c4)c3c2c1 [Compound 228, 5-(3-(cyclopropylcarbamoyl)phenyl)-3,8-dimethyl-N-(1-methylpiperidin-4-yl)-9H-pyrido[2,3-b]indole-7-carboxamide]",> 13
7,"CCS(=O)(=O)c1cccc(-c2cc(NC(=O)CCN(C)C)c(OC)c3[nH]c4ncc(C)cc4c23)c1 [Compound 240, 3-(dimethylamino)-N-(5-(3-(ethylsulfonyl)phenyl)-8-methoxy-3-methyl-9H-pyrido[2,3-b]indol-7-yl)propanamide]",5.6 to 8.5
8,"CCS(=O)(=O)c1cccc(-c2cc(NC(=O)C3CC3)c(OC)c3[nH]c4ncc(C)cc4c23)c1 [Compound 242, N-(5-(3-(ethylsulfonyl)phenyl)-8-methoxy-3-methyl-9H-pyrido[2,3-b]indol-7-yl)-cyclopropanecarboxamide]",8.6 to 13
9,"CCS(=O)(=O)c1cccc(-c2cc(NC(=O)C3CCN(C(C)=O)CC3)c(OC)c3[nH]c4ncc(C)cc4c23)c1 [Compound 243, 1-acetyl-N-(5-(3-(ethylsulfonyl)phenyl)-8-methoxy-3-methyl-9H-pyrido[2,3-b]indol-7-yl)piperidine-4-carboxamide]",8.6 to 13
10,"CCS(=O)(=O)c1cccc(-c2cc(Cl)c(OC)c3[nH]c4ncc(C)cc4c23)c1 [Compound 246, 7-chloro-5-(3-(ethylsulfonyl)phenyl)-8-methoxy-3-methyl-9H-pyrido[2,3-b]indole]",5.6 to 8.5
11,"CCS(=O)(=O)c1cccc(-c2cc(Cl)c(OCCCO)c3[nH]c4ncc(C)cc4c23)c1 [Compound 248, 3-(7-chloro-5-(3-(ethylsulfonyl)phenyl)-3-methyl-9H-pyrido[2,3-b]indol-8-yloxy)propan-1-ol]",> 13
12,"CCS(=O)(=O)c1cccc(-c2cc(N(C)C(=O)C3CC3)c(OC)c3[nH]c4ncc(C)cc4c23)c1 [Compound 253, N-(5-(3-(ethylsulfonyl)phenyl)-8-methoxy-3-methyl-9H-pyrido[2,3-b]indol-7-yl)-N-methylcyclopropanecarboxamide]",> 13
13,"CCS(=O)(=O)c1cccc(-c2cc(N(C)C(=O)CCN(C)C)c(OC)c3[nH]c4ncc(C)cc4c23)c1 [Compound 254, 3-(dimethylamino)-N-(5-(3-(ethylsulfonyl)phenyl)-8-methoxy-3-methyl-9H-pyrido[2,3-b]indol-7-yl)-N-methylpropanamide]",> 13
14,"CCS(=O)(=O)c1cccc(-c2ccc(OCCN3CCOCC3)c3[nH]c4ncc(Cl)cc4c23)c1 [Compound 255, 4-(2-(3-chloro-5-(3-(ethylsulfonyl)phenyl)-9H-pyrido[2,3-b]indol-8-yloxy)ethyl)morpholine]",> 13
15,"CCS(=O)(=O)c1cccc(-c2ccc(OCCCN(C)C)c3[nH]c4ncc(C(F)(F)F)cc4c23)c1 [Compound 258, 3-(5-(3-(ethylsulfonyl)phenyl)-3-(trifluoromethyl)-9H-pyrido[2,3-b]indol-8-yloxy)-N,N-dimethylpropan-1-amine]",> 13
16,"COc1ccc(-c2cccc(C(=O)N3CCOCC3)c2)c2c1[nH]c1ncc(C)cc12 [Compound 259, (3-(8-methoxy-3-methyl-9H-pyrido[2,3-b]indol-5-yl)phenyl)(morpholino)methanone]",> 13
17,"CONC(=O)c1cccc(-c2ccc(OC)c3[nH]c4ncc(C)cc4c23)c1 [Compound 260, N-methoxy-3-(8-methoxy-3-methyl-9H-pyrido[2,3-b]indol-5-yl)benzamide]",> 13
18,"CCN(CC)CCNC(=O)c1cc(-c2cccc(S(=O)(=O)CC)c2)c2c([nH]c3ncc(C)cc32)c1C [Compound 262, N-(2-(diethylamino)ethyl)-5-(3-(ethylsulfonyl)phenyl)-3,8-dimethyl-9H-pyrido[2,3-b]indole-7-carboxamide]",8.6 to 13
